According to patent publication US12448369B2 (Edgewise Therapeutics, Inc., priority 2023, dated 2025):

How the values were obtained:
[1] = test system: Porcine atria myofibrils (atrial myosin ATPase); experiment: Myofibril ATPase assay, porcine atria myofibrils; type: biochemical
Summary of the method: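 Values are Y75 (concentration cutting ATPase activity to 75% of vehicle) or Y125 (raising it to 125%), taken from 4-parameter logistic fits. Rates come from NADH disappearance at 340 nm in a PK/LDH-coupled assay with porcine atria myofibrils.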

[2] = test system: Rabbit Psoas myofibrils (skeletal myosin ATPase); experiment: Myofibril ATPase assay, rabbit psoas (skeletal) myofibrils; type: biochemical
Summary of the method: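 Myofibrils homogenized in Triton X-100 buffer were assayed in pH 7.0 PIPES with defined Ca2+/EGTA. Myosin-driven ADP formation was coupled to NADH oxidation, with depletion monitored at 340 nm. Each value is the concentration that lowers activity to 75% of vehicle or, for activators, raises it to 125%.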

[3] = molecular target: T1, Porcine ventricle myofibrils (ventricular myosin ATPase) (Sus scrofa, UniProt P79293); experiment: Myofibril ATPase assay, porcine ventricle myofibrils; type: biochemical, porcine (Yucatan minipigs)
T1 construct: Myofibrils from porcine cardiac muscle was isolated from the left ventricle of Yucatan minipigs; tissue Exemplar Genetics; host or cells: left ventricle of Yucatan minipigs, myofibrils prepared in house
Summary of the method: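 Left-ventricle myofibrils from Yucatan minipigs were tested with a PK/LDH-coupled system, following NADH loss at 340 nm every 1.5-2 min for 75 min. Slopes were normalized to vehicle wells and fit to a 4-parameter logistic model; values are Y75 (25% ATPase reduction) or Y125 concentrations.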

[4] = Y75 value (no ‡ mark), porcine atria myofibrils
[5] = Y75 value (no ‡ mark), rabbit psoas myofibrils
[6] = Y75 value (no ‡ mark), porcine ventricle myofibrils
[7] = porcine atria myofibrils, Y75 value (75% activity relative to no compound)
[8] = rabbit psoas myofibrils, Y75 value
[9] = porcine ventricle myofibrils, Y75 value

T1 sequence (P79293 whole entry): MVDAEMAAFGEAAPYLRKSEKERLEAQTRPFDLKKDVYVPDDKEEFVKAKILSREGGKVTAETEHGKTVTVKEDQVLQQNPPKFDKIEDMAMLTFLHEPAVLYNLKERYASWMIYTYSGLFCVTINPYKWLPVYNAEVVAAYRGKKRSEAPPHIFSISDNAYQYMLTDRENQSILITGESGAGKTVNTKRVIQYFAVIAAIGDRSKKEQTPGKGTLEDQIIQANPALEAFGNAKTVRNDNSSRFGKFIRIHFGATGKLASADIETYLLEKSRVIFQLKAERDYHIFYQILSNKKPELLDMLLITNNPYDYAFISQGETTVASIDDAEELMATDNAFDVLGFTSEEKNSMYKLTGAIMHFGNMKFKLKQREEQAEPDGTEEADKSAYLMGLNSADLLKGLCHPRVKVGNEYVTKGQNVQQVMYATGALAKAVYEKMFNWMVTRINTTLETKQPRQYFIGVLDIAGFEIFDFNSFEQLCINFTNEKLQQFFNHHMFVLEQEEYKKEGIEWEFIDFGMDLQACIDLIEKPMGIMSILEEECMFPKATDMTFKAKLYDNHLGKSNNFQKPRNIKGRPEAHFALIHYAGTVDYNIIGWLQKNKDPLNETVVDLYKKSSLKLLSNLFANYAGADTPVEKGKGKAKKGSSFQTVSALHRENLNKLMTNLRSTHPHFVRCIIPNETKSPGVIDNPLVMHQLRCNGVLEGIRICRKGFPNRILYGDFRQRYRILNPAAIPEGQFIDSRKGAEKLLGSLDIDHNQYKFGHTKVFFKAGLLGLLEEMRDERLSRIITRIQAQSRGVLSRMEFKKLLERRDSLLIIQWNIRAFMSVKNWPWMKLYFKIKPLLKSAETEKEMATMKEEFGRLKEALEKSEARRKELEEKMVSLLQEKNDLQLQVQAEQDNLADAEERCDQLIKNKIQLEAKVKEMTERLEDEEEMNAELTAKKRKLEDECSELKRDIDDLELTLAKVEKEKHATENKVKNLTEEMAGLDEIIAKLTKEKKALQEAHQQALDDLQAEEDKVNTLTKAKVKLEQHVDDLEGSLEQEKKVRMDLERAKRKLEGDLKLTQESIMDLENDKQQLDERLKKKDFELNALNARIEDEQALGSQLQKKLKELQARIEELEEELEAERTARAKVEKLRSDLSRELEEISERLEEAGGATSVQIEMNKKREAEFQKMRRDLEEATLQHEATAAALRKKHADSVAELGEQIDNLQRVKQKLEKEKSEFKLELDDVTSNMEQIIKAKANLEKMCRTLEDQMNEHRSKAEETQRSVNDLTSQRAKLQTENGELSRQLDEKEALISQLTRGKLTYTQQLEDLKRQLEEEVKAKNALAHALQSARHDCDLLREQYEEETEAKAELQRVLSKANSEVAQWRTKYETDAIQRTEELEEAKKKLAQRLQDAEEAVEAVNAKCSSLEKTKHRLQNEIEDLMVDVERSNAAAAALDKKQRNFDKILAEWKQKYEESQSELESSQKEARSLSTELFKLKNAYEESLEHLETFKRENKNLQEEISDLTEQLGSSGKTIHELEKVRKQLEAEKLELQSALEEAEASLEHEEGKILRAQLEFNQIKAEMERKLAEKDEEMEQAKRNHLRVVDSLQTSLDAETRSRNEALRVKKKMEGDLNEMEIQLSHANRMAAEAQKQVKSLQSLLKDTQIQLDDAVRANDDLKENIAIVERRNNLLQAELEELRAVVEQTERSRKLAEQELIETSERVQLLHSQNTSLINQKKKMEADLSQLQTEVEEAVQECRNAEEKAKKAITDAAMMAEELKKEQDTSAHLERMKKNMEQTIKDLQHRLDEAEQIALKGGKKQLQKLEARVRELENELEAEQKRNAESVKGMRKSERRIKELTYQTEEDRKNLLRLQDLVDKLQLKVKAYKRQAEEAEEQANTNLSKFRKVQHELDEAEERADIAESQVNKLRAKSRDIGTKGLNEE

Row | SMILES | Atrial EC25 [1, 4] [nM] | Skeletal EC25 [2, 5] [nM] | Ventricular EC25 [3, 6] [nM] | Atrial EC25 [1, 7] [nM] | Skeletal EC25 [2, 8] [nM] | Ventricular EC25 [3, 9] [nM] | further results
1 | COc1ccc2[nH]c(=O)c(CC(=O)N[C@@H](C)c3ccc(F)cc3F)cc2c1C#N [Compound 81, (S)-2-(5-Cyano-6-methoxy-2-oxo-1,2-dihydroquinolin-3-yl)-N-(1-(2,4-difluorophenyl)ethyl) acetamide] | 100000 | 51890 | 100000 |  |  |  | 
2 | Cc1nccc2[nH]c(=O)c(CC(=O)N[C@H]3COc4cc(F)cc(F)c43)c(C)c12 (single isomer, unassigned) [compound 289] |  |  |  | 28000 | 2540 | 100000 | 
3 | C[C@H](NC(=O)Cc1c(C2CC2)c2cnccc2[nH]c1=O)c1ncc(C#N)cc1F [compound 143] |  |  |  | 960 | 610 | 6560 | 
4 | CC(C(=O)N[C@@H](C)c1ccc(F)cc1F)c1cc2c(Br)cccc2[nH]c1=O (stereo partly drawn) [compound 94] | 6810 | 220 | 100000 |  |  |  | 
5 | Cc1c(CC(=O)N[C@H](C)c2ccc(C#N)cc2F)c(=O)[nH]c2ccc(F)c(F)c12 [compound 65] | 230 | 20 | 220 |  |  |  | 
6 | C[C@H](NC(=O)[C@@H](C)c1cc2c(C3CC3)nccc2[nH]c1=O)c1ccc(F)cc1F (single isomer, unassigned) [compound 356] |  |  |  | 100000 | 157500 | 100000 | 
7 | Cc1c(CC(=O)N[C@H]2c3c(F)cc(F)cc3OC2(C)C)c(=O)[nH]c2ccnc(C#N)c12 (single isomer, unassigned) [compound 187] |  |  |  | 110 | 50 | 1360 | 
8 | Cc1nccc2[nH]c(=O)c(CC(=O)N[C@@H](CO)c3ccc(F)cc3F)c(C)c12 (single isomer, unassigned) [compound 396] |  |  |  | 1180 | 550 | 3320 | 
9 | Cc1c(CC(=O)N[C@@H](C)c2ccc(C#N)cc2F)c(=O)[nH]c2cnnc(C#N)c12 [compound 172] |  |  |  | 100 | 40 | 3780 | 
10 | C[C@H](NC(=O)Cc1c(C(F)(F)F)c2cnccc2[nH]c1=O)c1ccc(F)cc1F [compound 447] |  |  |  | 250 | 50 | 10160 | 
11 | Cc1nc(C#N)cnc1[C@@H](C)NC(=O)Cc1c(C)c2c(C)nccc2[nH]c1=O [compound 491] |  |  |  | 1570 | 7590 | 11590 | 
12 | C[C@H](NC(=O)Cc1c(C(F)(F)F)c2cc(F)ccc2[nH]c1=O)c1ccc(F)cc1F [compound 115] | 50 | 20 | 320 |  |  |  | 
13 | COc1ccc([C@@H](C)NC(=O)Cc2c(C)c3c(C)nccc3[nH]c2=O)cc1 (single isomer, unassigned) [compound 286] |  |  |  | 45610 | 8580 | 100000 | 
14 | Cc1c(O)ccc2[nH]c(=O)c(CC(=O)N[C@@H](C)c3ncc(F)cc3F)cc12 (single isomer, unassigned) [compound 78] | 7080 | 6600 | 100000 |  |  |  | 
15 | Cc1nccc2[nH]c(=O)c([C@H](C)C(=O)N[C@H](C)c3ccc(C#N)cc3F)c(C)c12 (single isomer, unassigned) [compound 184] |  |  |  | 100000 | 100000 | 100000 | 
16 | Cc1c(CC(=O)N[C@H](CO)c2ccc(C#N)cc2F)c(=O)[nH]c2ccnc(C(F)(F)F)c12 (single isomer, unassigned) [compound 224] |  |  |  | 6570 | 360 | 100000 | 
17 | Cc1nccc2[nH]c(=O)c([C@H](C)C(=O)N[C@@H](C)c3ncc(C#N)cc3F)c(C)c12 (single isomer, unassigned) [compound 194] |  |  |  | 5870 | 1220 | 100000 | 
18 | Cc1c(CC(=O)N[C@H](CO)c2ncc(F)cc2F)c(=O)[nH]c2ccc(C#N)nc12 [compound 259] |  |  |  | 100000 | 100000 | 100000 | 
19 | Cc1c(CC(=O)N[C@@H](C)c2ccc(C#N)nn2)c(=O)[nH]c2cc(F)c(F)cc12 [compound 1043] | 1280 | 410 | 3500 |  |  |  | 
20 | C[C@H](NC(=O)Cc1cc2c(C3CC3)nccc2[nH]c1=O)c1ccc(F)cc1F [compound 432] |  |  |  | 16070 | 470 | 80530 | 
21 | Cc1nc(C#N)cnc1[C@@H](C)NC(=O)Cc1cc2cc(F)c(F)cc2[nH]c1=O (single isomer, unassigned) [compound 5] | 1450 | 3600 | 4130 |  |  |  | 
22 | Cc1nccc2[nH]c(=O)c([C@H](C)C(=O)N[C@@H](C)c3ccc(C#N)cc3F)c(C)c12 (single isomer, unassigned) [compound 196] |  |  |  | 110 | 180 | 4230 | 
23 | Cc1c(CC(=O)N[C@H](C)c2ccc(C#N)nn2)c(=O)[nH]c2cccc(C#N)c12 [compound 1038] | 420 | 340 | 2700 |  |  |  | 
24 | C[C@@H](NC(=O)Cc1c(C2CC2)c2cc(F)ccc2[nH]c1=O)c1ccc(C#N)cn1 [compound 55] | 1290 | 1200 | 100000 |  |  |  | 
25 | C[C@H](NC(=O)Cc1cc2c(Cl)c(O)ccc2[nH]c1=O)c1ccc(F)cc1F [compound 91] | 1380 | 3550 | 100000 |  |  |  | 
26 | Cc1c(CC(=O)NC(C)c2cc(C#N)c(F)s2)c(=O)[nH]c2ccc(F)c(F)c12 (stereo not drawn) [compound 4001] |  |  |  |  |  |  | Atrial EC25 ([1]; Y75 value: concentration required to reduce myosin ATP-ase activity by 25%, Porcine Atria Prep pCa 25 GEOM_MEAN): 260 nM; Skeletal EC25 ([2]; Y75 value: concentration required to reduce myosin ATP-ase activity by 25%, Rabbit Psoas Prep pCa 25 GEOM_MEAN): 160 nM; Ventricular EC25 ([3]; Y75 value: concentration required to reduce myosin ATP-ase activity by 25%, Porcine Ventricle Prep pCa 25 GEOM_MEAN): 580 nM
27 | Cc1c(C(C)C(=O)N[C@@H](C)c2ccc(F)cc2F)c(=O)[nH]c2ccnc(C#N)c12 (stereo partly drawn) [compound 363] |  |  |  | 360 | 40 | 2830 | 

Continued, in another order:

Row | Atrial EC25 [1, 4] [nM] | Skeletal EC25 [2, 5] [nM] | Ventricular EC25 [3, 6] [nM] | Atrial EC25 [1, 7] [nM] | Skeletal EC25 [2, 8] [nM] | Ventricular EC25 [3, 9] [nM] | SMILES | further results
28 | 180 | 110 | 770 |  |  |  | Cc1c(C(F)(F)C(=O)N[C@H](C)c2ncc(C#N)cc2F)c(=O)[nH]c2ccc(F)c(C#N)c12 (single isomer, unassigned) [compound 4835] | 
29 | 8470 | 42660 | 100000 |  |  |  | N#Cc1cnc2c(c1)CC[C@H]2NC(=O)C1(c2cc3c(F)c(F)ccc3[nH]c2=O)CC1 (single isomer, unassigned) [compound 4823] | 
30 | 120 | 110 | 610 |  |  |  | Cc1c(C(F)(F)C(=O)N[C@@H](C)c2ncc(F)cc2F)c(=O)[nH]c2ccc(F)cc12 (single isomer, unassigned) [compound 4820] | 
31 | 920 | 280 | 3580 |  |  |  | Cc1c(C(F)(F)C(=O)N[C@H](C)c2ncc(C#N)cn2)c(=O)[nH]c2cccc(C#N)c12 (single isomer, unassigned) [compound 4838] | 
32 | 510 | 490 | 890 |  |  |  | Cc1c(C(F)(F)C(=O)N[C@@H](C)c2cnc(C#N)cn2)c(=O)[nH]c2ccc(F)cc12 (single isomer, unassigned) [compound 2564] | 
33 | 150 | 120 | 540 |  |  |  | Cc1c(C(F)(F)C(=O)N[C@H](C)c2cnc(C#N)cn2)c(=O)[nH]c2ccc(F)cc12 (single isomer, unassigned) [compound 2563] | 
34 | 100000 | 100000 | 100000 |  |  |  | Cc1nnccc1C(C)NC(=O)Cc1cc2cc(F)c(F)cc2[nH]c1=O (stereo not drawn) [compound 2073] | 
35 | 490 | 260 | 2280 |  |  |  | Cc1cccc2[nH]c(=O)c(CC(=O)N[C@@H](C)c3ccc(C#N)cn3)c(C#N)c12 [compound 1111] | 
36 | 90 | 40 | 180 |  |  |  | Cc1c(CC(=O)N[C@@H](C)c2ncc(C#N)cc2F)c(=O)[nH]c2ccc(Cl)cc12 (single isomer, unassigned) [compound 2050] | 
37 | 1280 | 500 | 630 |  |  |  | O=C(Cc1cc2cc(F)ccc2[nH]c1=O)N1CC[C@H]2C[C@@H]1c1ccccc12 (single isomer, unassigned) [compound 4502] | 
